“And” between values parts separate entries of the source, which are not always exact repeats. Equal values may be shown once. “Also recorded” adds a separate entry of the source.
Legend:
[1] = molecular target: T1, human M3 muscarinic acetylcholine receptor (Homo sapiens, UniProt P20309); assay type: cell-based
T1 construct: CHO cells expressing the human M3 muscarinic acetylcholine receptor open reading frame; host or cells: CHO cells, stably transfected (CHO-M3)

[2] = test system: store-operated calcium entry (SOCE) channels; test: Store-operated calcium entry (SOCE) in CHO-M3 cells (fura-2 imaging); assay type: cell-based, Chinese hamster; settings: for acute effect of direct SOCE channel inhibitors on SOCE: added after activation of SOCE by 10 μM carbamylcholine, honokiol 30 μM in insert, unpublished observations; for initial rate of rise of [Ca2+]i in response to reintroduction of calcium: control cells
[3] = molecular target: T2, human M3 muscarinic receptor (Homo sapiens, UniProt P20309); assay type: binding
T2 construct: CHO cells expressing the human M3 muscarinic acetylcholine receptor open reading frame; host or cells: CHO cells, stably transfected (CHO-M3)
T2 sequence (P20309 whole entry): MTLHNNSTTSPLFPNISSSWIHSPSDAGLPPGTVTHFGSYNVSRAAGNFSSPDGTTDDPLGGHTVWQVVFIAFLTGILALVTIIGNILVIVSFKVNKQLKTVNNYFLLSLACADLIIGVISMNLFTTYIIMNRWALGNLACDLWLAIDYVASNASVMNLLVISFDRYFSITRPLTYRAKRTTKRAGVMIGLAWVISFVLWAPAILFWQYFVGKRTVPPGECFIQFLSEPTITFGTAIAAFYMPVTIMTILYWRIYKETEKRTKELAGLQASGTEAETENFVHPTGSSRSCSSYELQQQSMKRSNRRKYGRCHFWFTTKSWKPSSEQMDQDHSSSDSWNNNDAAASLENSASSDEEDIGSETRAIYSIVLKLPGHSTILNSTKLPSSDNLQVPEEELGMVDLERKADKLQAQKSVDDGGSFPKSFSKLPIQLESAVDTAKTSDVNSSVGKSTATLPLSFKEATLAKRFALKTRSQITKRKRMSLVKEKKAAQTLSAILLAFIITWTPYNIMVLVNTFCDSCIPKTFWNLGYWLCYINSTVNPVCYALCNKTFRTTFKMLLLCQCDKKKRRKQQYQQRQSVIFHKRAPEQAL
Experimental: (§1) In some experiments, the cells were exposed to 2 mM tBHP for 90 min before harvesting. Binding was determined by filtering the suspension through glass fiber filters (1 μm pore size) and measuring the amount of radioactivity bound to membranes trapped on the filters by liquid scintillation counting.
(§2) Binding parameters were averaged from 3 independent experiments. […] 5′-Guanylyl-imidodiphosphate (Gpp(NH)p) was included in some experiments to assess receptor – G protein interactions.

[4] = molecular target: T3, human M2 muscarinic receptor (Homo sapiens, UniProt P08172); test: [3H]N-methylscopolamine dissociation from M2 receptors expressed in CHO cells; assay type: binding
T3 sequence (P08172 1-466): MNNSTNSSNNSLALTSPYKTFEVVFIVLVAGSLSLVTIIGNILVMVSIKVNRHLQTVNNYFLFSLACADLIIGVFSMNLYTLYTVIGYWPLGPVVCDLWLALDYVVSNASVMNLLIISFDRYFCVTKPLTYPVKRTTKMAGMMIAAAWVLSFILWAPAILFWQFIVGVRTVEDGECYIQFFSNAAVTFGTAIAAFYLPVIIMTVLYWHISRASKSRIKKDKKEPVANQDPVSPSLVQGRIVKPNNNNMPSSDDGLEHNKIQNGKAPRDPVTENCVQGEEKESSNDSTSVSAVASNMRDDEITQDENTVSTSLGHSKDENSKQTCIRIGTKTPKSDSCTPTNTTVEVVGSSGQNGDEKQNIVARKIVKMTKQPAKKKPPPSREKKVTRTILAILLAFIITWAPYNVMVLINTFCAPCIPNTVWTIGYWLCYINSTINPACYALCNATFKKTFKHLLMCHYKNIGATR
Experimental: as §1, §2
Muscarinic receptors can also be regulated by ligands that bind to an allosteric site. […] Accordingly, we measured ligand dissociation from muscarinic receptors after exposure to 2 mM tBHP for 90 min (Figure 9).

CHO-M3 cells [5] = test: Resting cytosolic calcium concentration in CHO-M3 cells (fura-2 imaging); assay type: cell-based, Chinese hamster
CHO-M3 cells [6] = test: Endoplasmic reticulum luminal calcium (Mag-Fura 2, saponin-permeabilized cells); assay type: cell-based, Chinese hamster
Experimental: The concentration of Ca^2+ in the lumen of the ER ([Ca^2+]L) was measured using the low-affinity calcium indicator, Mag-Fura 2 (Molecular Probes). […] The media was removed and the cells rinsed with BSS and then incubated with Mag-Fura 2 (50 μM) for 60 minutes at room temperature. Mag-Fura 2 was removed and the cells incubated for an additional 30 minutes. Prior to imaging, the BSS was removed and replaced with Ca^2+- and Mg^2+-free BSS. During imaging, the cells were permeabilized by exposure to 0.005% saponin for 70 seconds to release cytosolic calcium. This caused a rapid decrease in total fluorescence intensity following excitation at both 340 and 380 nm, but elimination of the pervasive cytosolic signal allowed detection of ER lumen calcium levels 30 seconds after saponin addition. Following stabilization of the signal (≈100 sec), R340/380 was averaged for 10 seconds in approximately 20 cells on each plate.

CHO-M3 cells [7] = test: Reactive oxygen species, DCFDA fluorescence; assay type: cell-based, Chinese hamster; settings: 90 min exposure
Experimental: The concentration of reactive oxygen species (ROS) was determined by the […] of 2′,7′-dichlorodihydrofluorescein (DCFDA; Sigma). CHO-M3 cells were plated on a 96 well plate with opaque walls at a density of 30,000 cells/well, and incubated overnight in phenol red-free media. Following a 90 min exposure to tBHP, the media was removed and the cells were washed with BSS. DCFDA (100 μl of a 40 μM solution) was added, and the plate was incubated for 1 h before measuring fluorescence at 485 nm excitation/520 nm emission using a FLUOstar plate reader.

CHO-M3 cells [8] = test: Thapsigargin-induced release of calcium from the ER in CHO-M3 cells (fura-2 imaging)
[9] = 90 min exposure, extracellular calcium present

T1 sequence (P20309 whole entry): as the sequence (P20309 whole entry) above

NCCOB(c1ccccc1)c1ccccc1 [2-aminoethoxydiphenylborane]
effect on all calcium responses to carbamylcholine [1]: completely blocked
acute effect of direct SOCE channel inhibitors on SOCE [2]: immediate reductions in SOCE; also recorded: immediate reduction of SOCE

Nc1nc2c(ncn2[C@@H]2O[C@H](COP(=O)(O)OP(=O)(O)NP(=O)(O)O)[C@@H](O)[C@H]2O)c(=O)[nH]1 [Gpp(NH)p, 5′-Guanylyl-imidodiphosphate]
effect on carbamylcholine inhibition curves of [3H]MS binding [3]: shifted the inhibition curves to the right

Cl.O=S(=O)(c1cccc2c(Cl)cccc12)N1CCCNCC1 [ML 9, 1-(5-chloronaphthalenesulfonyl)homo piperazine hydrochloride]
acute effect of direct SOCE channel inhibitors on SOCE [2]: immediate reduction of SOCE

C[N+]1(C)[C@@H]2CC(OC(=O)[C@H](CO)c3ccccc3)C[C@H]1[C@@H]1O[C@@H]12 (stereo partly shown) [[^3H]MS, [^3H]N-methylscopolamine]
k−1, rate constant for [3H]MS dissociation [4]: 0.027 ± 0.004 min⁻¹ and 0.021 ± 0.006 min⁻¹
k−1, rate constant for [3H]MS dissociation, with gallamine [4]: 0.004 ± 0.001 min⁻¹ and 0.005 ± 0.002 min⁻¹

C[N+](C)(C)CCOC(N)=O.[Cl-] [carbamylcholine]
initial rate of rise of [Ca2+]i in response to reintroduction of calcium ([2]; after carbamylcholine in calcium-free medium, 2 mM calcium reintroduced): 24 ± 8 nM/s

C=CCc1ccc(O)c(-c2ccc(O)c(CC=C)c2)c1 [honokiol]
acute effect of direct SOCE channel inhibitors on SOCE [2]: immediate reductions in SOCE; also recorded: immediate reduction of SOCE

CC(C)(C)OO [tBHP, tert-butyl hydroperoxide]
effect on the response to M3 receptor activation ([1]; 90 min exposure, all concentrations at or above 1 mM, no extracellular calcium): depressed
effect on the initial calcium response to carbamylcholine [1, 9]: not significantly affected
resting [Ca2+]i after exposure (control 26 nM) (CHO-M3 cells [5]; 20 mM tBHP, 90 min, 2 mM extracellular calcium): 127 nM
resting [Ca2+]i after exposure (control 26 nM) (CHO-M3 cells [5]; 0.5-10 mM tBHP, 90 min (abstract)): up to 127 nM
resting calcium concentration after exposure (CHO-M3 cells [5]; 90 min exposure, Figure 3a): > 100 nM
acute effect on calcium entry after activation of SOCE ([2]; 20 mM added at 120 sec after 10 μM carbamylcholine): did not block calcium entry
depression of SOCE after thapsigargin ([2]; 90 min exposure, 0.5-5 mM, dose-dependent, calcium reintroduced (2 mM)): 30-70%
effect on ability of thapsigargin-induced calcium release to evoke SOCE ([2]; 90 min exposure, 0.5-20 mM, extracellular calcium present): severely compromised
effect on ability to maintain the higher level of [Ca2+]i (plateau, SOCE) [2, 9]: compromised in a concentration-dependent manner
decrease of [Ca2+]L (CHO-M3 cells [6]; 90 min exposure, 0.5-10 mM (abstract)): 55%
[Ca2+]L, % of control levels (CHO-M3 cells [6]; pretreatment 1-20 mM for 90 min): ≈ 55 % of control
threshold concentration for ROS production (CHO-M3 cells [7]): 5 mM
increase in ROS (CHO-M3 cells [7]; at 10 mM tBHP): up to 400%
effect on ability of carbamylcholine to inhibit [3H]MS binding [3]: not affected
effect on atropine-induced dissociation of M3 receptor-[3H]MS complex and on gallamine slowing of dissociation [3]: had no effect
effect on [3H]MS binding affinity ([3]; 2 mM for 90 min): not affected
effect on allosteric receptor actions ([4]; 2 mM for 90 min): not affected
inhibition of the initial thapsigargin-stimulated release of calcium from the ER (CHO-M3 cells [8]; 90 min exposure, all concentrations 0.5 to 5 mM, calcium-free medium): 50%

C/C=C(/C)C(=O)O[C@H]1C(C)=C2[C@H]([C@@H]1OC(=O)CCCCCCC)[C@@](C)(OC(C)=O)C[C@H](OC(=O)CCC)[C@@]1(O)[C@H]2OC(=O)[C@@]1(C)O [thapsigargin]
initial rate of rise of [Ca2+]i in response to reintroduction of calcium ([2]; after 1 μM thapsigargin in calcium-free medium): 40.0 ± 5.1 nM/s
initial rate of rise of [Ca2+]i in response to thapsigargin (CHO-M3 cells [8]; control cells, 1 μM thapsigargin, extracellular calcium present): 4.3 ± 0.6 nM/s

Reference: publication PMC3716919, “Oxidative stress disruption of receptor-mediated calcium signaling mechanisms” (Journal of Biomedical Science, 2013)
